This note sets out measurements from US6423688B1, “Dipeptide and related compounds which inhibit leukocyte adhesion mediated by VLA-4” (Athena Neurosciences, Inc., priority 1997, dated 2002).

Peptide text beside a SMILES is read from it. * marks the point of attachment. Tos = Cc1ccc(S(=O)(=O)*)cc1

Broadly, the melting point is the temperature of the solid-liquid transition.

With `Cc1ccc(S(=O)(=O)N2CCC[C@H]2C(=O)N[C@@H](CC(N)=O)C(=O)O)cc1` [Example 2, N-(Toluene-4-sulfonyl)-L-prolyl-L-asparagine] (Tos-Pro-Asn-OH), the melting point was in the range of 178 to 180 °C.

As for `Cc1ccc(S(=O)(=O)N2CCC[C@H]2C(=O)N[C@@H](CCC(N)=O)C(=O)O)cc1` [Example 5, N-(Toluene-4-sulfonyl)-L-prolyl-L-glutamine] (Tos-Pro-Gln-OH), the melting point lay in the range of 45 to 55 °C.
